Data reported in patent US20090202540A1, “SUBSTITUTED OXAZAPHOSPHORINES” (Auspex Pharmaceuticals, Inc., priority 2008, published 2009).
Where two headings read alike, the source gives them in different places.

Conditions: 1 mg per mL liver microsome protein, 1 μM compound, 37° C., compared to the non-isotopically enriched drug
Method: Liver microsomal stability assays were conducted at 1 mg per mL liver microsome protein with an NADPH-generating system in 2% NaHCO3 (2.2 mM NADPH, 25.6 mM glucose 6-phosphate, 6 units per mL glucose 6-phosphate dehydrogenase and 3.3 mM MgCl2). Test compounds were prepared as solutions in 20% acetonitrile-water and added to the assay mixture (final assay concentration 1 μM) and incubated at 37° C. Final concentration of acetonitrile in the assay should be <1%. Aliquots (50 μL) were taken out at times 0, 15, 30, 45, and 60 min, and diluted with ice cold acetonitrile (200 μL) to stop the reactions. Samples were centrifuged at 12,000 RPM for 10 min to precipitate proteins. Supernatants were transferred to micro centrifuge tubes and stored for LC/MS/MS analysis of the degradation half-life of the test compounds.

Structure (SMILES) | % increase of HLM degradation half-life (50%-150%) | other results
[2H]C([2H])(Cl)C([2H])([2H])N(C([2H])([2H])C([2H])([2H])Cl)P1(=O)NCCCO1 (stereo not shown) [Example 1, d8-Bis-(2-chloro-ethyl)-(2-oxo-2λ^5-[1,3,2]oxazaphosphinan-2yl)-amine] | – | % increase of HLM degradation half-life (column −25%-0%): + (−25%-0%)
[2H]C1([2H])CCNP(=O)(N(CCCl)CCCl)O1 (stereo not shown) [Example 2, Bis-(2-chloro-ethyl)-(d2-2-oxo-2λ^5-[1,3,2]oxazaphosphinan-2yl)-amine] | + (50%-150%) | –
[2H]C1([2H])CCNP(=O)(N(C([2H])([2H])C([2H])([2H])Cl)C([2H])([2H])C([2H])([2H])Cl)O1 (stereo not shown) [Example 3, d8-Bis-(2-chloro-ethyl)-(d2-2-oxo-2λ^5-[1,3,2]oxazaphosphinan-2yl)amine] | + (50%-150%) | –
[2H]C1([2H])CCOP(=O)(N(C([2H])([2H])C([2H])([2H])Cl)C([2H])([2H])C([2H])([2H])Cl)N1 (stereo not shown) [Example 5, d8-Bis-(2-chloro-ethyl)-(2-oxo-2λ^5-[1,3,2]oxazaphosphinan-2yl)-d2-amine] | – | % increase of HLM degradation half-life (0%-50%): + (0%-50%)
